Source: patent US20230151003A1, “COMPOUNDS AND METHODS OF USE” (Exelixis, Inc., priority 2020, published 2023)
Counter-ions that a name gives are not always drawn.

Assays:
Mer = target: T1, Mer (Homo sapiens, UniProt Q12866); test: Mer autophosphorylation ELISA in transient transfected 293A cells; format: cell-based; conditions: Table 3 Cellular Activities; MERTK-transfected 293A cells, phospho-Mer ELISA
T1 construct: host or cells: 293A cells (Thermo Fisher #R70507)
T1 sequence (Q12866 21-999): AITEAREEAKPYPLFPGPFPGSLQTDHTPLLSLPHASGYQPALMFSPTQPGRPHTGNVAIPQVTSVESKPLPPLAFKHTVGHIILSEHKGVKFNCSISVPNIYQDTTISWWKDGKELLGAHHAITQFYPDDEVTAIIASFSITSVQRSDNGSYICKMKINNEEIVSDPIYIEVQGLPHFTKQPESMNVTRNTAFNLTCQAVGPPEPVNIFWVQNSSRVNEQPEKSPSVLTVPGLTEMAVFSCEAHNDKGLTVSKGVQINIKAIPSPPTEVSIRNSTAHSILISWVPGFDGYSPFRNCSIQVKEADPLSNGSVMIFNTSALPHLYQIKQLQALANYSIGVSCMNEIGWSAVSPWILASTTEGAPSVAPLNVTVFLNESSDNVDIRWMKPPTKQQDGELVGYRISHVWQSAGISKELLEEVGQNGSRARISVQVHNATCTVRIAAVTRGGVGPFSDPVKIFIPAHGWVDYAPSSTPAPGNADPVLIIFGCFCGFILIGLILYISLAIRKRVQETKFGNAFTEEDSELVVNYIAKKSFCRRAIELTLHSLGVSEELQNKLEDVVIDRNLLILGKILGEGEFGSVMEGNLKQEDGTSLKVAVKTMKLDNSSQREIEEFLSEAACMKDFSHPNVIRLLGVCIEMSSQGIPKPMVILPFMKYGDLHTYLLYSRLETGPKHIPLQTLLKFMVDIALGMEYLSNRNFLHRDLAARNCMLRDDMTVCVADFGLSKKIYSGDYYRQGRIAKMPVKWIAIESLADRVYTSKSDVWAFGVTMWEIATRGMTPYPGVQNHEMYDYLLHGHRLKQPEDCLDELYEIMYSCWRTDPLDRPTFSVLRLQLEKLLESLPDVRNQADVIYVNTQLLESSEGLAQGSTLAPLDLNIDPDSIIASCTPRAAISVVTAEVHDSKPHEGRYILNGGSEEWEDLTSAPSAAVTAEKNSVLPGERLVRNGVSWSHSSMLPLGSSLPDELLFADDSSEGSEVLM
How it was run: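 Phospho-Mer quantified by ELISA in lysates of transiently MERTK-transfected 293A cells after 1 h exposure to an 8-point compound series, serum-free, 0.3% DMSO. Activity normalized between DMSO-treated (100%) and reference inhibitor-treated (0%) lysates; IC50 via 4-parameter nonlinear regression.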

KDR = KDR (Homo sapiens, UniProt P35968); test: KDR autophosphorylation ELISA in HUVEC cells; format: cell-based; design: endogenous in cells; host or cells: HUVEC (Lonza #C2519A); conditions: Table 3 Cellular Activities, VEGF165-stimulated, phospho-KDR ELISA
How it was run: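 Inhibition of VEGF165-induced KDR phosphorylation was determined in serum-starved HUVEC after 1 h compound pretreatment and 5 min stimulation with 100 ng/mL VEGF165. Lysate phospho-KDR was measured by ELISA; IC50 values came from a 4-parameter logistic fit of 8-point curves.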

Sequence of KDR (P35968 20-1356): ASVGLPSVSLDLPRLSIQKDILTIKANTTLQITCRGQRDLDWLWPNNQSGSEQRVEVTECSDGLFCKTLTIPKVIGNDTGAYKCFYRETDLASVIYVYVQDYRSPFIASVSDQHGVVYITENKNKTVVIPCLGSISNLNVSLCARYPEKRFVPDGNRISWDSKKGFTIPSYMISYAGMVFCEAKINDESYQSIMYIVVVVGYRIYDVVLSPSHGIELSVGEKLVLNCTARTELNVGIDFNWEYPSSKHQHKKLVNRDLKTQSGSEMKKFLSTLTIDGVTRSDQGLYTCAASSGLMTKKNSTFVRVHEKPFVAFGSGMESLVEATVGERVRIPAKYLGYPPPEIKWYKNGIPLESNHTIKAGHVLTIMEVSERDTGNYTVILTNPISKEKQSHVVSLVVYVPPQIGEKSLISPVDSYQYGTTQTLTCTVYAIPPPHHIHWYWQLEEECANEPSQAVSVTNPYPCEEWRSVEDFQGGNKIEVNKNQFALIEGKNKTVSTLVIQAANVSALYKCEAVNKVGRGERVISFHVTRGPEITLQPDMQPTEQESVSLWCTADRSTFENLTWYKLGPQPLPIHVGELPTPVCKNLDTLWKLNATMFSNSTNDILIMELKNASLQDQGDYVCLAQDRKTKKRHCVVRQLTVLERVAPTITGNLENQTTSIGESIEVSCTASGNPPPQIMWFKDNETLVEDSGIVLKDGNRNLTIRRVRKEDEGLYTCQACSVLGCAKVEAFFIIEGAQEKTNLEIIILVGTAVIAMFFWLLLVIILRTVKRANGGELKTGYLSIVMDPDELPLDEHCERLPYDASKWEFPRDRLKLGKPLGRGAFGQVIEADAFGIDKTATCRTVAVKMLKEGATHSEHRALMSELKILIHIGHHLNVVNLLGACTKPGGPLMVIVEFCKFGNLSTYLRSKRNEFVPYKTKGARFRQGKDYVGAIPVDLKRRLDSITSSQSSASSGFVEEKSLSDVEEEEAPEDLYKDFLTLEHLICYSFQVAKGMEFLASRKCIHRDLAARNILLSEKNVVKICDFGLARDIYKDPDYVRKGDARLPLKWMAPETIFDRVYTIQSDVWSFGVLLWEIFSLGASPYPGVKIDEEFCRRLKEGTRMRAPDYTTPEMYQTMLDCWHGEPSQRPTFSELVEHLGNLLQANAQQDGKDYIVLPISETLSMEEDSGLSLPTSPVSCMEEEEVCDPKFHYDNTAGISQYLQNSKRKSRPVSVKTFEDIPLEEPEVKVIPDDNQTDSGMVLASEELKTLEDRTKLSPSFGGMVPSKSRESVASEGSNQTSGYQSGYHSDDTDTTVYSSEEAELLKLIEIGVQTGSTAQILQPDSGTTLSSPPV

IC50 (Mer)	IC50 (KDR)	SMILES
≤ 100 nM	≤ 100 nM	COc1cc2nccc(Oc3ccc(NC(=O)c4cnc(C)c(-c5ccsc5)c4O)cc3F)c2nc1OC [Compound 93, N-[4-[(6,7-Dimethoxy-1,5-naphthyridin-4-yl)oxy]-3-fluoro-phenyl]-4-hydroxy-6-methyl-5-(3-thienyl)pyridine-3-carboxamide]
≤ 100 nM	≤ 100 nM	COc1cc2nccc(Oc3ccc(NC(=O)c4c(C)nc(C)c(-c5cc(C(F)(F)F)nn5C)c4O)cc3F)c2nc1OC [Compound 138]
≤ 100 nM	≤ 100 nM	C=Cc1ccc(-c2c(C)ncc(C(=O)Nc3ccc(Oc4ccnc5cc(OC)c(OC)nc45)c(F)c3)c2O)o1 [Compound 151, N-[4-[(6,7-Dimethoxy-1,5-naphthyridin-4-yl)oxy]-3-fluorophenyl]-5-(5-ethenylfuran-2-yl)-4-hydroxy-6-methylpyridine-3-carboxamide]
≤ 100 nM	≤ 100 nM	CCc1ccc(-c2c(C)nc(C)c(C(=O)Nc3ccc(Oc4ccnc5cc(OC)c(OC)nc45)c(F)c3)c2O)o1 [Compound 147, N-[4-[(6,7-Dimethoxy-1,5-naphthyridin-4-yl)oxy]-3-fluorophenyl]-5-(5-ethylfuran-2-yl)-4-hydroxy-2,6-dimethylpyridine-3-carboxamide]
≤ 100 nM	≤ 100 nM	COc1cc2nccc(Oc3ccc(NC(=O)c4cn(CCF)c(C)c(-c5ccsc5)c4=O)cc3F)c2nc1OC [Compound 332, N-[4-[(6,7-Dimethoxy-1,5-naphthyridin-4-yl)oxy]-3-fluorophenyl]-1-(2-fluoroethyl)-6-methyl-4-oxo-5-thiophen-3-ylpyridine-3-carboxamide]
≤ 100 nM	≤ 100 nM	COc1cnc2c(Oc3ccc(NC(=O)c4cnc(C)c(-c5ccco5)c4O)cc3)ccnc2c1 [Compound 129, 5-(Furan-2-yl)-4-hydroxy-N-[4-[(7-methoxy-1,5-naphthyridin-4-yl)oxy]phenyl]-6-methylpyridine-3-carboxamide]
≤ 100 nM	≤ 100 nM	COc1cc2nccc(Oc3ccc(NC(=O)c4cnc(C)c(-c5ccoc5)c4O)cc3F)c2nc1OC [Compound 95, N-[4-[(6,7-Dimethoxy-1,5-naphthyridin-4-yl)oxy]-3-fluoro-phenyl]-5-(3-furyl)-4-hydroxy-6-methyl-pyridine-3-carboxamide]
≤ 100 nM	≤ 100 nM	COc1cnc2c(Oc3ccc(NC(=O)c4cnc(C)c(-c5ccc(C)o5)c4O)cc3F)ccnc2c1 [Compound 97, N-[3-Fluoro-4-[(7-methoxy-1,5-naphthyridin-4-yl)oxy]phenyl]-4-hydroxy-6-methyl-5-(5-methyl-2-furyl)pyridine-3-carboxamide]
≤ 100 nM	≤ 100 nM	COc1cc2nccc(Oc3ccc(NC(=O)c4cnc(C)c(-c5ccc(C6CC6)o5)c4O)cc3F)c2nc1OC [Compound 155A, 5-(5-Cyclopropylfuran-2-yl)-N-[4-[(6,7-dimethoxy-1,5-naphthyridin-4-yl)oxy]-3-fluorophenyl]-4-hydroxy-6-methylpyridine-3-carboxamide hydrochloride]
≤ 100 nM	≤ 100 nM	COc1cc2nccc(Oc3ccc(NC(=O)c4cnc(C)c(-c5cccs5)c4O)cc3F)c2nc1OC [Compound 90, N-[4-[(6,7-Dimethoxy-1,5-naphthyridin-4-yl)oxy]-3-fluoro-phenyl]-4-hydroxy-6-methyl-5-(2-thienyl)pyridine-3-carboxamide]
≤ 100 nM	≤ 100 nM	COc1cc2nccc(Oc3ccc(NC(=O)c4c(C)ncc(-c5cccs5)c4O)cc3F)c2nc1OC [Compound 123, N-[4-[(6,7-Dimethoxy-1,5-naphthyridin-4-yl)oxy]-3-fluorophenyl]-4-hydroxy-2-methyl-5-thiophen-2-ylpyridine-3-carboxamide]
≤ 100 nM	300 to 1000 nM	COc1cnc2c(Oc3ccc(NC(=O)c4cn(CCF)c(C)c(-c5ccsc5)c4=O)cc3F)ccnc2c1 [Compound 330, 1-(2-Fluoroethyl)-N-[3-fluoro-4-[(7-methoxy-1,5-naphthyridin-4-yl)oxy]phenyl]-6-methyl-4-oxo-5-thiophen-3-ylpyridine-3-carboxamide]
≤ 100 nM	≤ 100 nM	COc1cc2nccc(Oc3ccc(NC(=O)c4c(C)nc(C)c(-c5cc(C)cs5)c4O)cc3F)c2nc1OC [Compound 137, N-[4-[(6,7-Dimethoxy-1,5-naphthyridin-4-yl)oxy]-3-fluorophenyl]-4-hydroxy-2,6-dimethyl-5-(4-methylthiophen-2-yl)pyridine-3-carboxamide]
≤ 100 nM	300 to 1000 nM	COc1cc2nccc(Oc3ccc(NC(=O)c4cc(Br)c(C)n(-c5ccc(F)cn5)c4=O)cc3F)c2nc1OC [Compound 55, 5-Bromo-N-[4-[(6,7-dimethoxy-1,5-naphthyridin-4-yl)oxy]-3-fluorophenyl]-1-(5-fluoropyridin-2-yl)-6-methyl-2-oxopyridine-3-carboxamide]
≤ 100 nM	≤ 100 nM	COc1ccc2nccc(Oc3ccc(NC(=O)c4cnc(C)c(-c5ccco5)c4O)cc3F)c2n1 [Compound 118, N-[3-Fluoro-4-[(6-methoxy-1,5-naphthyridin-4-yl)oxy]phenyl]-5-(furan-2-yl)-4-hydroxy-6-methylpyridine-3-carboxamide]
≤ 100 nM	≤ 100 nM	CCc1ccc(-c2c(C)ncc(C(=O)Nc3ccc(Oc4ccnc5cc(OC)c(OC)nc45)c(F)c3)c2O)o1 [Compound 153, N-[4-[(6,7-Dimethoxy-1,5-naphthyridin-4-yl)oxy]-3-fluorophenyl]-5-(5-ethylfuran-2-yl)-4-hydroxy-6-methylpyridine-3-carboxamide]
≤ 100 nM	≤ 100 nM	COc1cnc2c(Oc3ccc(NC(=O)c4cnc(C)c(-c5ccc(C)s5)c4O)cc3F)ccnc2c1 [Compound 101, N-[3-Fluoro-4-[(7-methoxy-1,5-naphthyridin-4-yl)oxy]phenyl]-4-hydroxy-6-methyl-5-(5-methyl-2-thienyl) pyridine-3-carboxamide]
≤ 100 nM	≤ 100 nM	COc1cc2nccc(Oc3ccc(NC(=O)c4c(C)ncc(-c5sccc5C)c4O)cc3F)c2nc1OC [Compound 126, N-[4-[(6,7-Dimethoxy-1,5-naphthyridin-4-yl)oxy]-3-fluorophenyl]-4-hydroxy-2-methyl-5-(3-methylthiophen-2-yl)pyridine-3-carboxamide]
≤ 100 nM	≤ 100 nM	COc1cc2nccc(Oc3ccc(NC(=O)c4cnc(C)c(-c5cc(C)cs5)c4O)cc3F)c2nc1OC [Compound 91, N-[4-[(6,7-Dimethoxy-1,5-naphthyridin-4-yl)oxy]-3-fluoro-phenyl]-4-hydroxy-6-methyl-5-(4-methyl-2-thienyl) pyridine-3-carboxamide]
≤ 100 nM	≤ 100 nM	COc1cc2nccc(Oc3ccc(NC(=O)c4cnc(C)c(-c5cc(C(F)(F)F)nn5C)c4O)cc3F)c2nc1OC [Compound 105]
≤ 100 nM	300 to 1000 nM	COc1cnc2c(Oc3ccc(NC(=O)c4c(C)n(C)c(C)c(-c5cccs5)c4=O)cc3)ccnc2c1 [Compound 165, N-[4-[(7-Methoxy-1,5-naphthyridin-4-yl)oxy]phenyl]-1,2,6-trimethyl-4-oxo-5-thiophen-2-ylpyridine-3-carboxamide]
≤ 100 nM	≤ 100 nM	COc1cnc2c(Oc3ccc(NC(=O)c4cnc(C)c(-c5cccs5)c4O)cc3F)ccnc2c1 [Compound 100, N-[3-Fluoro-4-[(7-methoxy-1,5-naphthyridin-4-yl)oxy]phenyl]-4-hydroxy-6-methyl-5-(2-thienyl)pyridine-3-carboxamide]
≤ 100 nM	≤ 100 nM	COc1cc2nccc(Oc3ccc(NC(=O)c4c(C)ncc(-c5ccco5)c4O)cc3F)c2nc1OC [Compound 119, N-[4-[(6,7-Dimethoxy-1,5-naphthyridin-4-yl)oxy]-3-fluorophenyl]-5-(furan-2-yl)-4-hydroxy-2-methylpyridine-3-carboxamide]
